Results published in patent publication US5464607A, “5,5'-/(1,3-propanediyl) bis-/imino(2-oxo-2,1-ethanediyl)acetylimino/bis(2,4,6-triiodo-1,3-benzen edicarboxylamides), and contrast media containing them” (Dibra S.p.A., priority 1991, dated 1995).

Columns and labels:
[1] = Viscosity (ROTOVISCO RV100CV100-LV100, sensor ZB15); assay type: physicochemical
From the text: ^b) Calculated with ROTOVISCO^(R) RV100CV100-LV100, sensor ZB15.

physchem = conditions: water
[2] = water
[3] = Osmolality (steampressure osmometer Wescor mod 5500); assay type: physicochemical
From the text: ^a) Calculated with a steampressure osmometer Wescor(R) mod 5500,
calibrated with NaCl aqueous solutions.

CC(=O)N(CC(=O)NCC(O)CNC(=O)CN(C(C)=O)c1c(I)c(C(=O)NCC(O)CO)c(I)c(C(=O)NCC(O)CO)c1I)c1c(I)c(C(=O)NCC(O)CO)c(I)c(C(=O)NCC(O)CO)c1I (centres unmarked) [5,5'-[(2-hydroxy-1,3-propanediyl)bis [imino(2-oxo-2,1-ethanediyl)acetylimino]]bis[N,N'-bis(2,3-dihydroxypropyl)-2,4,6-triiodo-1,3-benzenedicarboxyamide]]
Viscosity at 20° C. ([1]; 200 mgI/ml): 5,7 mPa·s
Viscosity at 20° C. ([1]; 300 mgI/ml): 24 mPa·s
Viscosity at 20° C. ([1]; 400 mgI/ml): 112 mPa·s
Viscosity at 37° C. ([1]; 200 mgI/ml): 3,4 mPa·s
Viscosity at 37° C. ([1]; 300 mgI/ml): 12 mPa·s
Viscosity at 37° C. ([1]; 400 mgI/ml): 41 mPa·s
solubility (physchem): > 1000 mg/mL
Solubility in H2 O at 30° C. [2]: > 100 g in 100 ml
Osmolality ([3]; 200 mgI/ml): 0,17 osmol/kg H2 O
Osmolality ([3]; 300 mgI/ml): 0,25 osmol/kg H2 O
Osmolality ([3]; 400 mgI/ml): 0,72 osmol/kg H2 O
